Results reported in patent US12275795B2, “Binding molecules against BCMA and uses thereof” (NOVARTIS AG, priority 2018, dated 2025).

Tests used:
KMS11-luc cells = assay: RTCC assay of bivalent AB3 in combination with GSI (8x8 matrix); type: cell-based, human; settings: for shift of bivalent AB3 response curves with increasing GSI concentration: combination with bivalent AB3
Text: Human T cells were isolated from peripheral blood of healthy human donors. First, peripheral blood mononuclear cells (PBMCs) were fractionated from donor blood using a Ficoll-Paque PLUS (GE Healthcare #17-1440-02) density gradient. T-cells were then isolated from PBMCs by negative selection according to manufacturer's recommended protocol (Miltenyi #130-096-535). The isolated T-cells were further expanded using Human T-Activator CD3/CD28 Dynabeads (Gibco #11132D) for nine days, then debeaded magnetically and stored as viable frozen aliquots in liquid nitrogen. The expanded T cells were used as effector T cells in RTCC assays where they were thawed from frozen aliquots, counted and used immediately at an Effector:Target (E:T) cell ratio of 3:1.
The target MM cell line KMS11 was transduced to constitutively express luciferase, which was used to measure cell viability/survival. KMS11 cells were pelleted and resuspended in fresh media immediately prior to plating to remove any basal level of shed BCMA that can have been present. 2,500 KMS11-luc target cells in 25 μL TCM were added to wells of 384-well plates. 50 nL of serially diluted bivalent AB3 and GSI solutions (LY411575, PR03084014, and BMS0708163) were acoustically dispensed to corresponding wells of the assay plates. 7,500 expanded T cells, as described above, were added to corresponding wells of assay plate in 20 μL TCM. The assay was incubated at 37° C./5% CO2 for 20 hr, followed by measurement of luciferase activity to indicate target cell viability (BrightGlo, Promega #E2650) following manufacturer's protocols. Target cells only (KMS11) without T cells or antibodies serve as control and represent 100% luciferase activity (100% viability). Data were plotted and analyzed using Spotfire, where EC50 values were calculated using sigmoidal, 4-parameter non-linear regression curve fit.
Data from bivalent AB3 and GSI combinations from Example 11 (FIG. 24) were plotted and analyzed using Spotfire, where EC50 values were calculated using sigmoidal, 4-parameter non-linear regression curve fit.

sBCMA from KMS11 cells = assay: Time course of shed BCMA (sBCMA) by ELISA after GSI treatment; type: cell-based, human; settings: 2 nM LY411575 or 200 nM PF03084014, 42-hr time course
Method: (§1) KMS11 cells were cultured in a 6 well plate at 4×10^6 cells/well in 4 mL of RPMI1640 supplemented with 20% FBS (Gibco #11875-085, Seradigm #1500-500) per well. GSI stock solutions were prepared in DMSO at 10 mM, and added to the cells at final concentrations of 2 nM for LY411575 (Sigma #SML0506) or 200 nM for PF03084014 (Selleckchem #S8018) respectively. Cells were incubated at 37° C./5% CO2, and samples were collected at the following time points: 0, 1, 2, 4, 6, 8, 12, 18, 24, 30 and 42 hr. Collected samples were evaluated for BCMA expression by ELISA and flow cytometry as outline below.
(§2) A pre-treatment study was conducted as above except that KMS11 cells were treated overnight (22 hr) with only LY411575. Cells were washed twice with 3 volumes of growth medium, and re-plated with fresh growth medium without the GSI to the original 4 mL volume. […]
sBCMA levels in supernatants collected and frozen at the various timepoints were determined by ELISA following vendor supplied protocol (R&D Systems #DY193). […] Quantified values as determined by the kit were divided by 5.5 to correct for a molecular mass difference between BCMA-Fc fusion protein used in the kit as a standard curve (32,554.6 Da) and the mass of endogenously shed BCMA extra-cellular domain (5,899.3 Da). […]

mBCMA on KMS11 cells = assay: Time course of membrane BCMA (mBCMA) by flow cytometry after GSI treatment; type: cell-based, human; settings: 2 nM LY411575 or 200 nM PF03084014, 42-hr time course
Method: as §1, §2
For each collected sample, cells were pelleted by centrifugation. […] Samples from all timepoints were analyzed together by flow cytometry on a BD LSR Fortessa instrument. […]
Where receptor density of BCMA was provided, the anti-BCMA antibody binding capacity (ABC) on KMS11 cells was determined using Quantum Simply Cellular beads (Bangs Laboratories #815) following vendor supplied protocol. The ABC is an estimate of the quantity of receptors per cell.

mBCMA in KMS11 xenograft = assay: In vivo GSI treatment, membrane BCMA on tumor cells by flow cytometry; design: species or system NSG mice; settings: 150 mg/kg BID for 5 days
Method: On Day 0, KMS11-Luc cells were harvested and suspended in Hanks Balanced Salt Solution (HBSS) and 50% matrigel solution at a concentration of 25×10^6 cells/mL. Female NOD.Cg-Prkdc^scidII2rg^tm1Wji/SzJ mice (NSG mice) at ˜6 weeks old (Jackson Laboratories, ME, USA), were implanted sub-cutaneously (SQ) with 200 μL of the cell suspension to deliver 5×10^6 KMS11-Luc cells SQ in the right flank. Seven days following tumor inoculation, each mouse received an adoptive transfer (AdT) of 10×10^6 of peripheral blood mononuclear cells (PBMCs) in 100 μL via IV injection in the lateral tail vein. The PBMCs were previously isolated from a human leukopak, frozen and stored in Cryostor10 media in vapor phase liquid Nitrogen tank until use. Immediately prior to AdT, PBMCs were thawed and suspended at a concentration of 100×10^6 cells/ml in Hanks Balanced Salt Solution (HBSS). […] To obtain single cell suspensions from excised tumors, the tissues were minced with scissors followed by mechanical homogenization in dissociation buffer containing RPMI (Gibco, Life Technologies) with Liberase™ research grade collagenase (Roche) and DNase I recombinase (Roche) using the GentleMAX (Miltenyi). Following a 5 minute incubation at 37° C. in a water or bead bath, the homogenates were quenched with 10% FBS and filtered on a 70-μM sieve (352350, Falcon). The concentration of single cell suspensions were measured on the Vi-Cell (Beckman Coulter), and cells were pelleted by centrifugation for 5 minutes at 1200 rpm. The supernatants were discarded and cell pellets were resuspended in 400 μL of RPMI (Gibco, Life Technologies). Tumor cells were plated in a volume of 100 μL/well at a cell density of 500,000 to 2 million/well. For cell surface staining, live/dead stain was added to plated samples in DPBS and incubated for 30 minutes. […] All samples were analyzed together by flow cytometry at the completion of the study. […]

[1] = system: sBCMA in KMS11 xenograft model serum; assay: In vivo GSI treatment, shed BCMA in serum by ELISA; design: species or system NSG mice; settings: 150 mg/kg BID for 5 days
Method: sBCMA levels in supernatants collected and frozen at the various timepoints were determined by ELISA following vendor supplied protocol (R&D Systems #DY193). Briefly, recombinant human BCMA-Fc protein was included in the kit, and used to generate a standard curve. Collected samples were assayed and sBCMA concentrations extrapolated from the standard curve. […] The results were plotted in Tibco Spotfire or Graphpad Prism against the concentration of GSI. On Day 0, KMS11-Luc cells were harvested and suspended in Hanks Balanced Salt Solution (HBSS) and 50% matrigel solution at a concentration of 25×10^6 cells/mL. Female NOD.Cg-Prkdc^scidII2rg^tm1Wji/SzJ mice (NSG mice) at ˜6 weeks old (Jackson Laboratories, ME, USA), were implanted sub-cutaneously (SQ) with 200 μL of the cell suspension to deliver 5×10^6 KMS11-Luc cells SQ in the right flank. Seven days following tumor inoculation, each mouse received an adoptive transfer (AdT) of 10×10^6 of peripheral blood mononuclear cells (PBMCs) in 100 μL via IV injection in the lateral tail vein. The PBMCs were previously isolated from a human leukopak, frozen and stored in Cryostor10 media in vapor phase liquid Nitrogen tank until use. Immediately prior to AdT, PBMCs were thawed and suspended at a concentration of 100×10^6 cells/ml in Hanks Balanced Salt Solution (HBSS).

[2] = KMS11-luc, expanded T cells E:T 3:1, 20 hr

SMILES | GSI concentration with modest enhancement of bivalent AB3 potency (KMS11-luc cells; [2]) [nM] | GSI concentration with significant enhancement of bivalent AB3 potency (KMS11-luc cells; [2]) [nM] | shift of bivalent AB3 response curves with increasing GSI concentration (KMS11-luc cells) | sBCMA concentration over time (sBCMA from KMS11 cells) | mBCMA levels over time (mBCMA on KMS11 cells) | GSI concentration with no effect on bivalent AB3 activity (KMS11-luc cells; [2]) [pM] | GSI concentration with small effect on bivalent AB3 activity (KMS11-luc cells; [2]) [pM] | increase in mBCMA compared to the vehicle control (mBCMA in KMS11 xenograft) [fold] | mBCMA levels by 24 hours post last dose (mBCMA in KMS11 xenograft) | time point post last dose through which mBCMA increase was sustained (mBCMA in KMS11 xenograft) [h] | sBCMA levels between 24 and 48 hours post last dose [1] | time post last dose for which sBCMA levels were ablated [1]
NC(=O)[C@@H](CCC(F)(F)F)N(Cc1ccc(-c2ncon2)cc1F)S(=O)(=O)c1ccc(Cl)cc1 [BMS-708163, (R)-2-((4-chloro-N-(2-fluoro-4-(1,2,4-oxadiazol-3-yl)benzyl)phenyl)sulfonamido)-5,5,5-trifluoropentanamide] | 8 | ≥ 31 | response curves shifted to the left | – | – | – | – | – | – | – | – | –
C[C@H](NC(=O)[C@@H](O)c1cc(F)cc(F)c1)C(=O)N[C@@H]1C(=O)N(C)c2ccccc2-c2ccccc21 [LY411575, (S)-2-((S)-2-(3,5-difluorophenyl)-2-hydroxyacetamido)-N—((S)-5-methyl-6-oxo-6,7-dihydro-5H-dibenzo[b,d]azepin-7-yl)propanamide] | – | ≥ 0.125 | response curves shifted to the left | no increase over time | increased over time | ≤ 7.8 | 31.2 | – | – | – | – | –
CCC[C@H](N[C@H]1CCc2cc(F)cc(F)c2C1)C(=O)Nc1cn(C(C)(C)CNCC(C)(C)C)cn1 [PF03084014, (S)-2-(((S)-6,8-difluoro-1,2,3,4-tetrahydronaphthalen-2-yl)amino)-N-(1-(2-methyl-1-(neopentylamino)propan-2-yl)-1H-imidazol-4-yl)pentanamide] | 3 | ≥ 12 | response curves shifted to the left | no increase over time | increased over time | – | – | 10 | dropped back to levels similar to those observed for the vehicle control | 7 | returning to levels comparable to those observed for the vehicle treated animals | up to 24 hours
